Test results taken from patent publication US12086788B2, “Substituted pyrazines as inhibitors of BTK, and mutants thereof” (Newave Pharmaceutical Inc., priority 2018, dated 2024).
pIC50: −log10 of the molar value. Entries after “also recorded” stand apart in the source; their conditions may differ.

Assays:
C481S BTK [1] = molecular target: T1, C481S BTK (Homo sapiens, UniProt Q06187, C481S); test: Caliper-based biochemical enzymatic assay (IC50), C481S BTK; settings: for IC50: 0.5 nM enzyme, ATP 16 μM, room temperature 3 h, read-out: C481S BTK IC50 (nM) (reversible inhibition)
T1 sequence (Q06187 whole entry C481S): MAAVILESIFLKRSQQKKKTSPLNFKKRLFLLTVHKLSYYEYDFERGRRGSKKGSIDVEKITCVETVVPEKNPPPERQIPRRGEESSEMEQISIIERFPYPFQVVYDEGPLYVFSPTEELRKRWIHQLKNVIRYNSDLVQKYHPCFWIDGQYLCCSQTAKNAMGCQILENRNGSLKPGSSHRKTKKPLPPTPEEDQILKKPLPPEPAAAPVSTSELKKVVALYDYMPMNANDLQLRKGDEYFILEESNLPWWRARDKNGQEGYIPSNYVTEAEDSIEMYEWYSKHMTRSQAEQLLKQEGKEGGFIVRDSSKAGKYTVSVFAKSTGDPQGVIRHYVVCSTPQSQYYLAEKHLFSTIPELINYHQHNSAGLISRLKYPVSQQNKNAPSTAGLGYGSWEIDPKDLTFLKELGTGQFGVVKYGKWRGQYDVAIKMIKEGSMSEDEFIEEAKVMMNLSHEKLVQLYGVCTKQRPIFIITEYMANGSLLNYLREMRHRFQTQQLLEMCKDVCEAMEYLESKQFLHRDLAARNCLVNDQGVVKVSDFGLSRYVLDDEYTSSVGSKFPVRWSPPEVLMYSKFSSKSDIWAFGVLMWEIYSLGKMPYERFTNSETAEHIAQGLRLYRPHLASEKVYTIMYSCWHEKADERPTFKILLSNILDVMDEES
Protocol: (§1) The reaction was then terminated with EDTA, final concentration 20 mM and the phosphorylated reaction product was quantified on a Caliper Desktop Profiler (Caliper LabChip 3000).

WT BTK [2] = molecular target: T2, WT BTK (Homo sapiens, UniProt Q06187); test: In vitro dialysis assay (irreversibility assay); assay type: biochemical; settings: from recovery after 24 h dialysis
T2 sequence (Q06187 whole entry): as the sequence (Q06187 whole entry C481S) above, with S481C counted along it
Protocol: The compound-enzyme complex was dialyzed against the same buffer supplemented with 40 mM ATP for 24 hr. Cumulative dialysis factor>160,000×. After dialysis, the BTK activity was measured in the presence […] and 1 mM substrate peptide and compared to that in non-dialyzed samples. Assay buffer: 100 mM HEPES, pH7.5; 0.1% BSA, 0.01% Triton-X 100; 5 mM MgCl2; 1 mM DTT.

WT BTK [3] = molecular target: T2, WT BTK; test: Caliper-based biochemical enzymatic assay (IC50), WT BTK; settings: 0.5 nM enzyme, ATP 16 μM, room temperature 3 h; read-out: WT BTK IV50 (nM) (irreversible inhibition)
Protocol: as §1

C481S BTK [4] = molecular target: T1, C481S BTK; test: Reversibility of binding to the C481S BTK enzyme; assay type: biochemical; settings: Cysteine residue not available for covalent binding
[5] = test system: basophil activation, B cell receptor activation, and constitutive p-BTK activity in whole blood lysates; settings: read-out: IC50s for basophil activation, B cell receptor activation, and constitutive p-BTK activity; cited from earlier work
dogs = settings: even at higher doses; cited from earlier work
rats = settings: treatment for longer than 7 days; cited from earlier work
[6] = Phase I clinical trials, formulations containing GDC-0853; cited from earlier work
mice = settings: even at higher doses; cited from earlier work

| IC50 (C481S BTK [1]) [nM] | IC50 (WT BTK [3]) [nM] | fold more potent than ACT-196 in C481S BTK assay (C481S BTK [1]) | fold more potent than Ibrutinib in C481S BTK assay (C481S BTK [1]) | mode of binding to C481S BTK (C481S BTK [4]) | Structure (SMILES) | Conclusion (WT BTK) (WT BTK [2]) | pIC50 [5] | pancreatic toxicity (dogs) | pancreatic toxicity (rats) | tolerability [6] | pancreatic toxicity (mice) |
| --- | --- | --- | --- | --- | --- | --- | --- | --- | --- | --- | --- |
| < 1 | < 1 | – | – | – | C=CC(=O)Nc1cc(Nc2nc(-c3ccnc(N4CCn5c(cc6c5CC(C)(C)C6)C4=O)c3CO)cn(C)c2=O)ccc1N1CCN(C2COC2)C[C@@H]1C [Example 3, (S)—N-(5-((6-(2-(7,7-dimethyl-1-oxo-1,3,4,6,7,8-hexahydro-2H-cyclopenta[4,5]pyrrolo[1,2-a]pyrazin-2-yl)-3-(hydroxymethyl)pyridin-4-yl)-4-methyl-3-oxo-3,4-dihydropyrazin-2-yl)amino)-2-(2-methyl-4-(oxetan-3-yl)piperazin-1-yl)phenyl)acrylamide] | irreversible inhibitors; also recorded: Irreversible/covalent inhibition | – | – | – | – | – |
| 1.7 | 0.25 | 477 | 64 | reversibly bind | C=CC(=O)Nc1cc(Nc2nc(-c3ccnc(N4CCn5c(cc6c5CC(C)(C)C6)C4=O)c3CO)cn(C)c2=O)ccc1N1CCN(C)CC1 [Example 2, N-(5-((6-(2-(7,7-dimethyl-1-oxo-1,3,4,6,7,8-hexahydro-2H-cyclopenta[4,5]pyrrolo[1,2-a]pyrazin-2-yl)-3-(hydroxymethyl)pyridin-4-yl)-4-methyl-3-oxo-3,4-dihydropyrazin-2-yl)amino)-2-(4-methylpiperazin-1-yl)phenyl)acrylamide] | irreversible inhibitors; also recorded: Irreversible/covalent inhibition | – | – | – | – | – |
| < 1 | < 1 | – | – | – | C=CC(=O)Nc1cc(Nc2nc(-c3ccnc(N4CCn5c(cc6c5CC(C)(C)C6)C4=O)c3CO)cn(C)c2=O)ccc1N1CCC(N2CCOCC2)CC1C (stereo not drawn) [Example 12, N-(5-((6-(2-(7,7-dimethyl-1-oxo-1,3,4,6,7,8-hexahydro-2H-cyclopenta[4,5]pyrrolo[1,2-a]pyrazin-2-yl)-3-(hydroxymethyl)pyridin-4-yl)-4-methyl-3-oxo-3,4-dihydropyrazin-2-yl)amino)-2-(2-methyl-4-morpholinopiperidin-1-yl)phenyl)acrylamide] | irreversible inhibitors; also recorded: Irreversible/covalent inhibition | – | – | – | – | – |
| – | – | – | – | – | C[C@H]1CN(C2COC2)CCN1c1ccc(Nc2cc(-c3ccnc(N4CCn5c(cc6c5CC(C)(C)C6)C4=O)c3CO)cn(C)c2=O)nc1 [GDC-0853] | Reversible | 8.05 to 8.70 | does not occur | pancreatic toxicity | well-tolerated | does not occur |
| < 1 | < 1 | – | – | – | C=CC(=O)Nc1cc(Nc2nc(-c3ccnc(N4CCn5c(cc6c5CC(C)(C)C6)C4=O)c3C)cn(C)c2=O)ccc1N1CCN(C2COC2)C[C@@H]1C [Example 11, (S)—N-(5-((6-(2-(7,7-dimethyl-1-oxo-1,3,4,6,7,8-hexahydro-2H-cyclopenta[4,5]pyrrolo[1,2-a]pyrazin-2-yl)-3-methylpyridin-4-yl)-4-methyl-3-oxo-3,4-dihydropyrazin-2-yl)amino)-2-(2-methyl-4-(oxetan-3-yl)piperazin-1-yl)phenyl)acrylamide] | irreversible inhibitors; also recorded: Irreversible/covalent inhibition | – | – | – | – | – |
